This is an account of results in patent publication US9505775B2, “Inhibitors of cytomegalovirus” (Boehringer Ingelheim International GmbH, priority 2012, dated 2016).

Molecules are shown by their SMILES.

One may read the IC50 as the point on the concentration scale where inhibition reaches its midpoint.

T1 sequence (P08546 whole entry): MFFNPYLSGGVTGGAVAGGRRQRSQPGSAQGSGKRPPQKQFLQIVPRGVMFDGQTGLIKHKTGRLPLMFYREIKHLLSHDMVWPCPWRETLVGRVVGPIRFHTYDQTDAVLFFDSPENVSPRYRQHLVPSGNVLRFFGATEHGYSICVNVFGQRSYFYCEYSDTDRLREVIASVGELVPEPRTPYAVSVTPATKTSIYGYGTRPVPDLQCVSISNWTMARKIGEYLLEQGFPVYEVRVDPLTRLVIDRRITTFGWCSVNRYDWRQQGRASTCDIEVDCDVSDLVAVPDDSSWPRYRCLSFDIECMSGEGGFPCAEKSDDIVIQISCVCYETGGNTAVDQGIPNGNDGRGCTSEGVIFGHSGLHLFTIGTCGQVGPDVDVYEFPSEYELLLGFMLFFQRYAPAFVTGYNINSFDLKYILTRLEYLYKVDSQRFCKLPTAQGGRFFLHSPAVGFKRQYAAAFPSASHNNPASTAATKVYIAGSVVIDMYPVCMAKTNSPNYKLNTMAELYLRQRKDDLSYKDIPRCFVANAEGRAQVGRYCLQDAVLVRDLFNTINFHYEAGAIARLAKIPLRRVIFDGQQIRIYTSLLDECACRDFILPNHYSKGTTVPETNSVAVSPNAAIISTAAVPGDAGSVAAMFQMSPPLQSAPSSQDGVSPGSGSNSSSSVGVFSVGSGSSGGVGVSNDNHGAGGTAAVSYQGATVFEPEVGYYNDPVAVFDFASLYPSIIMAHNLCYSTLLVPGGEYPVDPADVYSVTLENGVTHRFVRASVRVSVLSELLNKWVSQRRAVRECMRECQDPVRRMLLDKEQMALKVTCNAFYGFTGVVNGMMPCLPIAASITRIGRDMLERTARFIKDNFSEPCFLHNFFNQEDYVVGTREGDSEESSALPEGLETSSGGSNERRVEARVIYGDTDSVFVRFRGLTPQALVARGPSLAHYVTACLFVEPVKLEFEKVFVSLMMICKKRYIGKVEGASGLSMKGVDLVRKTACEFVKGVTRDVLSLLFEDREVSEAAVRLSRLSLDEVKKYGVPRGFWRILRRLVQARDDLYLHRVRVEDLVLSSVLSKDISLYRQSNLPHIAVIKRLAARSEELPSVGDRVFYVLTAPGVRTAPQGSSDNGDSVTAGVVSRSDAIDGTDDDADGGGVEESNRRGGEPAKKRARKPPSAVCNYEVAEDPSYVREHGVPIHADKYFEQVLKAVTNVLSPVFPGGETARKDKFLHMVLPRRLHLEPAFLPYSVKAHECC

This test addresses T1, purified recombinant HCMV polymerase from strain AD169 (UL54) (Human cytomegalovirus, UniProt P08546).
T1 construct: made in house; host or cells: Sf21 insect cells (baculovirus)
As to the kind of experiment: HCMV Polymerase LANCE TR-FRET Assay. The format is biochemical. The conditions noted are these: 2 nM GST-UL54, 37° C. for 30 min; read-out: IC50 (nM) Example B. The protocol:
This non-radiometric assay determines the enzymatic activity of purified recombinant HCMV polymerase from strain AD169 (UL54) using a Digoxigenin-labeled oligonucleotide priming a heteropolymeric template. The enzymatic activity is determined by incorporating Biotin-dUTP in the nascent complementary strand. The signal is generated by Fluorescence Resonance Energy Transfer from the donor (Anti-Digoxigenin-Europium Chelate binding with the primer) to the acceptor Streptavidin-AlloPhycoCyanin (SA-APC) binding to the biotin of the labeled nucleotides incorporated in proximity.
Serial dilutions of the DMSO stock compound solution are performed using DMSO in columns 2-11 and 14-23. DMSO alone is present in columns 1, 12, 13 and 24. Three μL of the DMSO serial dilutions is transferred and diluted using 21 μL of compound dilution buffer (10 mM Hepes pH 7.5, 25 mM KCl, 5 mM MgCl2, 1 mM TCEP) to obtain 12.5% DMSO. 4 μL per well of the 12.5% DMSO serial dilution compound solution is added to the assay plate. The plate is centrifuged at 200×g for 30 sec.
The assay conditions are the following: 10 mM HEPES pH 7.5, 25 mM KCl, 7.5 mM NaCl, 5 mM MgCl2, 0.2 mg BSA/mL, 1 mM TCEP, 1.5% glycerol, 5% DMSO, 235 nM dATP, 350 nM dCTP, 350 nM dGTP, 235 nM dTTP, 12 nM biotin-16-dUTP, 23.5 nM Dig-primer/template, 2 nM GST-UL54. The assay volume is 10 μL. […] The primer and template are annealed in 10 mM Tris-HCl pH 7.5, 50 mM NaCl at a respective concentration of 50 μM. They are incubated at 95° C. for 5 min in a dry batch block. The block is removed from the dry bath and allowed to cool to RT. Aliquots are made and stored at −20° C.
To perform the assay, 3 μL of the enzyme solution is added to columns 2-12 and 14-24. The enzyme is substituted by the blank solution (b solution without enzyme) for columns 1 and 13 (blanks). The plate is centrifuged at 200×g for 30 sec. 3 μL of substrate solution is added to each well. The plate is centrifuged at 200×g for 30 sec. Plates are incubated at 37° C. for 30 min. 5 μL of conjugate solution is added (25 mM Hepes pH 7.5, 0.1 M NaCl, 0.25% Tween-20, 1 mg/mL BSA, 12 mM EDTA, 24 nM Sreptavidin-APC, 342 ng/mL Anti-Dig-Europium). The plates are incubated at RT for at least 120 min. The signal is read on the Envision plate reader (Perkin-Elmer) or equivalent.
As to `N#Cc1cccc(N2C[C@@H](C(=O)N3CC4(CC4)c4cc(Cn5ccnc5)ccc43)CC2=O)c1` [13r1], the IC50 came to 360 nM.

Turning to `CC1(C)CN(C(=O)[C@H]2CC(=O)N(c3cccc(C#N)c3)C2)c2ccc(CCc3cccc(O)c3)cc21` [11ccc1], the IC50 worked out at 87 nM.

For the molecule `Cc1nccn1Cc1cc2c(cc1Cl)N(C(=O)[C@H]1CC(=O)N(c3cccc(C#N)c3)C1)CC2(C)C` [13x1], the IC50 worked out at 50 nM.

On to `CC1CN(C(=O)[C@H]2CC(=O)N(c3cccc(C#N)c3)C2)c2ccc(CCn3ccnc3)cc21` (single isomer, unassigned) [11aa1], for which the IC50 worked out at 100 nM.

With `CC1CN(C(=O)[C@H]2CC(=O)N(c3cccc(Cl)c3)C2)c2ccc(CCn3ccnc3)cc21` (single isomer, unassigned) [11ee1], the IC50 was found to be 63 nM.

Regarding `Cc1nccn1Cc1cc2c(cc1C(F)(F)F)N(C(=O)[C@H]1CC(=O)N(c3cccc(C#N)c3)C1)CC2(C)C` [11s1], the IC50 was 590 nM.

Take `CC1CN(C(=O)[C@H]2CC(=O)N(c3cccc(Cl)c3)C2)c2ccc(CCc3cncnc3)cc21` (single isomer, unassigned) [11hh1]: the half-maximal inhibitory concentration (IC50) came to 150 nM.

In the case of `CC1(C)CN(C(=O)[C@H]2CC(=O)N(c3cccc(C#N)c3)C2)c2ccc(CCn3ccnc3)cc21` [11e1], the IC50 amounted to 240 nM.

Take `CC(=O)N1CCC2(CC1)CN(C(=O)[C@H]1CC(=O)N(c3cccc(C#N)c3)C1)c1ccc(Cn3ccnc3C)cc12` [13v1]: the IC50 is 1600 nM.

As to `Cc1nccn1Cc1ccc2c(c1F)C(C)(C)CN2C(=O)[C@H]1CC(=O)N(c2cccc(C#N)c2)C1` [13g1], the IC50 amounted to 2100 nM.

For the molecule `Cc1noc(C)c1Cc1ccc2c(c1)C(C)(C)CN2C(=O)[C@H]1CC(=O)N(c2cccc(C#N)c2)C1` [22bb1], the IC50 came to 350 nM.

`CC1CN(C(=O)[C@H]2CC(=O)N(c3cccc(C#N)c3)C2)c2ccc(CCc3cncnc3)cc21` (single isomer, unassigned) [11dd1]: the IC50 was determined as 71 nM.

In the case of `Cc1oncc1Cc1ccc2c(c1)CCN2C(=O)[C@H]1CC(=O)N(c2cccc(C#N)c2)C1` [22dd1], the IC50 stood at 290 nM.

In the case of `Cc1ccc(CCc2ccc3c(c2)C(C)(C)CN3C(=O)[C@H]2CC(=O)N(c3cccc(C#N)c3)C2)cn1` [11ss1], the IC50 was 130 nM.

On to `CC(=O)N1CCC2(CC1)CN(C(=O)[C@H]1CC(=O)N(c3cccc(C#N)c3)C1)c1ccc(CN3CCOCC3)cc12` [11a1], for which the concentration for half-maximal inhibition (IC50) came out at 580 nM.

As to `CC1(C)CN(C(=O)[C@H]2CC(=O)N(c3cccc(C#N)c3)C2)c2ccc(CCc3ccccn3)cc21` [11bbb1], the IC50 worked out at 310 nM.

Regarding `Cc1ncc(Cc2ccc3c(c2)C2(CC2)CN3C(=O)[C@H]2CC(=O)N(c3cccc(C#N)c3)C2)o1` [22v1], the IC50 came out at 790 nM.

Take `Cc1nccn1Cc1ccc2c(c1)C(C)CN2C(=O)[C@H]1CC(=O)N(c2cccc(C#N)c2)C1` (single isomer, unassigned) [13o1]: the IC50 worked out at 3200 nM.

Take `CC1(C)CN(C(=O)[C@H]2CC(=O)N(c3cccc(C#N)c3)C2)c2cc(Cl)c(CCn3ccnc3)cc21` [17b1]: the IC50 was 330 nM.

For the molecule `CC1(C)CN(C(=O)[C@H]2CC(=O)N(c3cccc(C#N)c3)C2)c2ccc(CNc3cncnc3)cc21` [31a1], the IC50 is 86 nM.

In the case of `CC(c1ccc2c(c1)C(C)(C)CN2C(=O)[C@H]1CC(=O)N(c2cccc(C#N)c2)C1)n1ccnc1` (mixture of isomers) [11rr1], the concentration for half-maximal inhibition (IC50) came to 350 nM.

Regarding `CC1(C)CN(C(=O)[C@H]2CC(=O)N(c3cccc(C#N)c3)C2)c2ccc(Cn3cnnc3)cc21` [11vv1], the IC50 was determined as 160 nM.

Take `CC1(C)CN(C(=O)[C@H]2CC(=O)N(c3cccc(C#N)c3)C2)c2ccc(CCn3cncn3)cc21` [11zz1]: the IC50 is 99 nM.

Regarding `CC1(C)CN(C(=O)[C@H]2CC(=O)N(c3cccc(C#N)c3)C2)c2ccc(CCc3cncc(C#N)c3)cc21` [11t1], the 50% inhibitory concentration (IC50) was determined as 370 nM.

`Cn1cncc1CCc1ccc2c(c1)C(C)(C)CN2C(=O)[C@H]1CC(=O)N(c2cccc(C#N)c2)C1` [19c2]: the IC50 was 420 nM.

Turning to `Cn1cncc1CCc1ccc2c(c1)C(C)(CO)CN2C(=O)[C@H]1CC(=O)N(c2cccc(Cl)c2)C1` (single isomer, unassigned) [11oo1], the IC50 stood at 1600 nM.

Consider `N#Cc1cccc(N2C[C@@H](C(=O)N3CC4(CC4)c4cc(Cc5cncnc5)ccc43)CC2=O)c1` [22u1], for which the 50% inhibitory concentration (IC50) came to 570 nM.

As for `N#Cc1cccc(N2C[C@@H](C(=O)N3CCc4nc(CCn5ccnc5)ccc43)CC2=O)c1` [17n1], the 50% inhibitory concentration (IC50) was 540 nM.

For the molecule `CC1(C)CN(C(=O)[C@H]2CC(=O)N(c3cccc(C#N)c3)C2)c2ccc(CCc3ccccc3)cc21` [19b2], the IC50 was 990 nM.

For `Cn1cc(CCc2ccc3c(c2)C(C)(C)CN3C(=O)[C@H]2CC(=O)N(c3cccc(C#N)c3)C2)cn1` [11v1], the IC50 stood at 510 nM.

As to `CC1(C)CN(C(=O)[C@H]2CC(=O)N(c3cccc(C#N)c3)C2)c2ccc(Cc3cncnc3)cc21` [22l1.2], the IC50 is 380 nM.

In the case of `CC1(C)CN(C(=O)[C@H]2CC(=O)N(c3cccc(C#N)c3)C2)c2ccc(CCc3cncc(N)c3)cc21` [11ddd1], the IC50 came out at 38 nM.

As for `CC1(C)CN(C(=O)[C@H]2CC(=O)N(c3cccc(C#N)c3)C2)c2ccc(Cc3cnoc3)cc21` [22a2], the IC50 was 260 nM.

Take `CC(C)n1cnnc1CN(C)Cc1ccc2c(c1)CCN2C(=O)C1CC(=O)N(c2cccc(C#N)c2)C1` (stereo not drawn) [16c3]: the IC50 is 600 nM.

Take `Cc1cc2c(cc1Cn1ccnc1C)C(C)(C)CN2C(=O)[C@H]1CC(=O)N(c2cccc(C#N)c2)C1` [11q1]: the IC50 amounted to 49 nM.

With `CC1(C)CN(C(=O)[C@H]2CC(=O)N(c3cccc(Cl)c3)C2)c2ccc(CCc3cncnc3)cc21` [11h1], the IC50 amounted to 94 nM.

For the molecule `CC1(C)CN(C(=O)[C@H]2CC(=O)N(c3cccc(C#N)c3)C2)c2ccc(Cc3ccncc3)cc21` [22o1], the IC50 was determined as 2900 nM.

With `CNc1ncc(CCc2ccc3c(c2)C(C)(C)CN3C(=O)[C@H]2CC(=O)N(c3cccc(C#N)c3)C2)cn1` [17o1], the IC50 worked out at 240 nM.

As to `Cc1c(Cn2ccnc2C)ccc2c1C(C)(C)CN2C(=O)[C@H]1CC(=O)N(c2cccc(C#N)c2)C1` [11r1], the 50% inhibitory concentration (IC50) is 480 nM.

Turning to `CC(=O)N1CCC2(CC1)CN(C(=O)[C@H]1CC(=O)N(c3cccc(C#N)c3)C1)c1ccc(Cc3cncnc3)cc12` [22z1], the IC50 came out at 1300 nM.

On to `Cn1cncc1Cc1ccc2c(c1)CCN2C(=O)[C@H]1CC(=O)N(c2cccc(C#N)c2)C1` [22j1], for which the IC50 worked out at 480 nM.

For the molecule `N#Cc1cccc(N2C[C@@H](C(=O)N3CCc4cc(Cn5ccnc5)ccc43)CC2=O)c1` [13a1], the IC50 was 150 nM.

Take `CC1(C)CN(C(=O)C2CC(=O)N(c3cccc(C#N)c3)C2)c2cc(Cl)c(Cn3cnnc3)cc21` (stereo not drawn) [13l1]: the IC50 was 230 nM.

Take `CC1(C)CN(C(=O)[C@H]2CC(=O)N(c3cccc(C#N)c3)C2)c2ccc(Cn3ccnc3CC(=O)O)cc21` [24a1]: the half-inhibitory concentration (IC50) was 690 nM.

On to `CC1(C)CN(C(=O)[C@H]2CC(=O)N(c3cccc(Cl)c3)C2)c2ccc(CCn3ccnc3)cc21` [11g1], for which the IC50 was determined as 200 nM.

As for `CC1(C)CN(C(=O)[C@H]2CC(=O)N(c3cccc(C#N)c3)C2)c2ccc(CCc3cncnc3)cc21` [11f1], the IC50 stood at 95 nM.

With `CC1(C)CN(C(=O)[C@H]2CC(=O)N(c3cccc(Cl)c3)C2)c2ccc(Cn3ccnc3)cc21` [13d1], the IC50 stood at 110 nM.

With `CC1(C)CN(C(=O)[C@H]2CC(=O)N(c3cccc(C#N)c3)C2)c2ccc(Cn3cncc3C(=O)O)cc21` [24d1], the IC50 is 550 nM.

Regarding `Cc1ncc(Cc2ccc3c(c2)C(C)(C)CN3C(=O)[C@H]2CC(=O)N(c3cccc(C#N)c3)C2)o1` [22w1], the half-inhibitory concentration (IC50) turned out to be 470 nM.

For `CC1(C)CN(C(=O)C2CC(=O)N(c3cccc(C#N)c3)C2)c2ccc(COc3cncnc3)cc21` (stereo not drawn) [13w1], the 50% inhibitory concentration (IC50) was determined as 840 nM.

For `Cc1ncc(Cc2ccc3c(c2)C(C)(CO)CN3C(=O)[C@H]2CC(=O)N(c3cccc(Cl)c3)C2)o1` (single isomer, unassigned) [11qq1], the IC50 was found to be 750 nM.

For the molecule `N#Cc1cccc(N2C[C@@H](C(=O)N3CC4(CCOCC4)c4cc(Cn5ccnc5)ccc43)CC2=O)c1` [13t1], the IC50 stood at 730 nM.

In the case of `Cc1nccn1Cc1cc2c(cc1F)N(C(=O)[C@H]1CC(=O)N(c3cccc(C#N)c3)C1)CC2(C)C` [13f1], the IC50 amounted to 140 nM.

`Cc1ncc(Cc2ccc3c(c2)C(C)(C)CN3C(=O)C2CC(=O)N(c3cccc(C#N)c3)C2)o1` (stereo not drawn) [22s1]: the IC50 is 550 nM.
